According to ChEMBL document CHEMBL3727348, “3-(aryl or heteroaryl) methyleneindolin-2-one derivatives as inhibitors of cancer stem cell pathway kinases for the treatment of cancer” (2014):

test system: FaDu; assay: Cytotoxic activity against human FADU cancer stem cells incubated for 72 hrs by Cell-titer-Glo luminescence assay; assay type: functional, cell-based; conditions: not given

Compound | IC50
CCN(CC)CCNC(=O)c1c(C)[nH]c(/C=C2\C(=O)Nc3ccc(-c4ccc(OC)cn4)cc32)c1C | 0.16 µM
CCN(CC)CCNC(=O)c1c(C)[nH]c(/C=C2\C(=O)Nc3ccc(-c4cnc5ccccn45)cc32)c1C | 17.6 µM
CCN(CC)CCNC(=O)c1c(C)[nH]c(/C=C2\C(=O)Nc3ccc(-c4ccc(OC)cc4C)cc32)c1C | 1.4 µM
CCN(CC)CCNC(=O)c1c(C)[nH]c(/C=C2\C(=O)Nc3cc(-c4csc(-n5cccn5)n4)ccc32)c1C | 0.78 µM
CCN(CC)CCNC(=O)c1c(C)[nH]c(/C=C2\C(=O)Nc3ccc(-c4cnc5cccnn45)cc32)c1C | 0.06 µM
CCN(CC)CCNC(=O)c1c(C)[nH]c(/C=C2\C(=O)Nc3ccc(-c4cnc5ccccc5c4)cc32)c1C | 5.47 µM
CCN(CC)CCNC(=O)c1c(C)[nH]c(/C=C2\C(=O)Nc3ccc(-c4cccc(C#N)c4C)cc32)c1C | 4.73 µM
CCN(CC)CCNC(=O)c1cc(C)c(/C=C2\C(=O)Nc3ccc(-c4csc(-c5ccccc5)n4)cc32)[nH]1 | 3.13 µM
CCN(CC)CCNC(=O)c1c(C)[nH]c(/C=C2\C(=O)Nc3ccc(-c4ccncc4)cc32)c1C | 16.2 µM
O=C1Nc2ccc(-c3csc(C4CCNCC4)n3)cc2/C1=C/c1cc2c([nH]1)CCCC2 | 12 µM

test system: A549; assay: Cytotoxic activity against human A549 bulk cells incubated for 72 hrs by Cell-titer-Glo luminescence assay; assay type: functional, cell-based; conditions: A549, 72 h

Compound | IC50
CCN(CC)CCNC(=O)c1c(C)[nH]c(/C=C2\C(=O)Nc3ccc(-c4ccc(OC)cn4)cc32)c1C | 10.8 µM
CCN(CC)CCNC(=O)c1c(C)[nH]c(/C=C2\C(=O)Nc3ccc(-c4cnc5ccccn45)cc32)c1C | 5.86 µM
CCN(CC)CCNC(=O)c1c(C)[nH]c(/C=C2\C(=O)Nc3ccc(-c4ccc(OC)cc4C)cc32)c1C | 1.74 µM
CCN(CC)CCNC(=O)c1c(C)[nH]c(/C=C2\C(=O)Nc3cc(-c4csc(-n5cccn5)n4)ccc32)c1C | 5.8 µM
CCN(CC)CCNC(=O)c1c(C)[nH]c(/C=C2\C(=O)Nc3ccc(-c4cnc5cccnn45)cc32)c1C | 3.66 µM
CCN(CC)CCNC(=O)c1c(C)[nH]c(/C=C2\C(=O)Nc3ccc(-c4cnc5ccccc5c4)cc32)c1C | 3.85 µM
CCN(CC)CCNC(=O)c1c(C)[nH]c(/C=C2\C(=O)Nc3ccc(-c4cccc(C#N)c4C)cc32)c1C | 2.8 µM
CCN(CC)CCNC(=O)c1cc(C)c(/C=C2\C(=O)Nc3ccc(-c4csc(-c5ccccc5)n4)cc32)[nH]1 | 4 µM
CCN(CC)CCNC(=O)c1c(C)[nH]c(/C=C2\C(=O)Nc3ccc(-c4ccncc4)cc32)c1C | 7.07 µM
O=C1Nc2ccc(-c3csc(C4CCNCC4)n3)cc2/C1=C/c1cc2c([nH]1)CCCC2 | 9.39 µM

test system: A549; assay: Cytotoxic activity against human A549 cancer stem cells incubated for 72 hrs by Cell-titer-Glo luminescence assay; assay type: functional, cell-based; conditions: A549, 72 h

Compound | IC50
CCN(CC)CCNC(=O)c1c(C)[nH]c(/C=C2\C(=O)Nc3ccc(-c4ccc(OC)cn4)cc32)c1C | 8.89 µM
CCN(CC)CCNC(=O)c1c(C)[nH]c(/C=C2\C(=O)Nc3ccc(-c4cnc5ccccn45)cc32)c1C | 17.2 µM
CCN(CC)CCNC(=O)c1c(C)[nH]c(/C=C2\C(=O)Nc3ccc(-c4ccc(OC)cc4C)cc32)c1C | 4.61 µM
CCN(CC)CCNC(=O)c1c(C)[nH]c(/C=C2\C(=O)Nc3cc(-c4csc(-n5cccn5)n4)ccc32)c1C | 2.93 µM
CCN(CC)CCNC(=O)c1c(C)[nH]c(/C=C2\C(=O)Nc3ccc(-c4cnc5cccnn45)cc32)c1C | 6.64 µM
CCN(CC)CCNC(=O)c1c(C)[nH]c(/C=C2\C(=O)Nc3ccc(-c4cnc5ccccc5c4)cc32)c1C | 6.83 µM
CCN(CC)CCNC(=O)c1c(C)[nH]c(/C=C2\C(=O)Nc3ccc(-c4cccc(C#N)c4C)cc32)c1C | 4.48 µM
CCN(CC)CCNC(=O)c1cc(C)c(/C=C2\C(=O)Nc3ccc(-c4csc(-c5ccccc5)n4)cc32)[nH]1 | 26.7 µM
CCN(CC)CCNC(=O)c1c(C)[nH]c(/C=C2\C(=O)Nc3ccc(-c4ccncc4)cc32)c1C | 9.85 µM
O=C1Nc2ccc(-c3csc(C4CCNCC4)n3)cc2/C1=C/c1cc2c([nH]1)CCCC2 | 22.1 µM

test system: ACHN; assay: Cytotoxic activity against human ACHN bulk cells incubated for 72 hrs by Cell-titer-Glo luminescence assay; assay type: functional, cell-based; conditions: not given

Compound | IC50
CCN(CC)CCNC(=O)c1c(C)[nH]c(/C=C2\C(=O)Nc3ccc(-c4ccc(OC)cn4)cc32)c1C | 6.44 µM
CCN(CC)CCNC(=O)c1c(C)[nH]c(/C=C2\C(=O)Nc3ccc(-c4cnc5ccccn45)cc32)c1C | 4.65 µM
CCN(CC)CCNC(=O)c1c(C)[nH]c(/C=C2\C(=O)Nc3ccc(-c4ccc(OC)cc4C)cc32)c1C | 2.26 µM
CCN(CC)CCNC(=O)c1c(C)[nH]c(/C=C2\C(=O)Nc3cc(-c4csc(-n5cccn5)n4)ccc32)c1C | 2.6 µM
CCN(CC)CCNC(=O)c1c(C)[nH]c(/C=C2\C(=O)Nc3ccc(-c4cnc5cccnn45)cc32)c1C | 3.64 µM
CCN(CC)CCNC(=O)c1c(C)[nH]c(/C=C2\C(=O)Nc3ccc(-c4cnc5ccccc5c4)cc32)c1C | 6.39 µM
CCN(CC)CCNC(=O)c1c(C)[nH]c(/C=C2\C(=O)Nc3ccc(-c4cccc(C#N)c4C)cc32)c1C | 5.23 µM
CCN(CC)CCNC(=O)c1cc(C)c(/C=C2\C(=O)Nc3ccc(-c4csc(-c5ccccc5)n4)cc32)[nH]1 | 14.9 µM
CCN(CC)CCNC(=O)c1c(C)[nH]c(/C=C2\C(=O)Nc3ccc(-c4ccncc4)cc32)c1C | 11.6 µM
O=C1Nc2ccc(-c3csc(C4CCNCC4)n3)cc2/C1=C/c1cc2c([nH]1)CCCC2 | 18.8 µM

test system: ACHN; assay: Cytotoxic activity against human ACHN cancer stem cells incubated for 72 hrs by Cell-titer-Glo luminescence assay; assay type: functional, cell-based; conditions: not given

Compound | IC50
CCN(CC)CCNC(=O)c1c(C)[nH]c(/C=C2\C(=O)Nc3ccc(-c4ccc(OC)cn4)cc32)c1C | 1.08 µM
CCN(CC)CCNC(=O)c1c(C)[nH]c(/C=C2\C(=O)Nc3ccc(-c4cnc5ccccn45)cc32)c1C | 3.44 µM
CCN(CC)CCNC(=O)c1c(C)[nH]c(/C=C2\C(=O)Nc3ccc(-c4ccc(OC)cc4C)cc32)c1C | 1.42 µM
CCN(CC)CCNC(=O)c1c(C)[nH]c(/C=C2\C(=O)Nc3cc(-c4csc(-n5cccn5)n4)ccc32)c1C | 0.17 µM
CCN(CC)CCNC(=O)c1c(C)[nH]c(/C=C2\C(=O)Nc3ccc(-c4cnc5cccnn45)cc32)c1C | 2.73 µM
CCN(CC)CCNC(=O)c1c(C)[nH]c(/C=C2\C(=O)Nc3ccc(-c4cnc5ccccc5c4)cc32)c1C | 0.62 µM
CCN(CC)CCNC(=O)c1c(C)[nH]c(/C=C2\C(=O)Nc3ccc(-c4cccc(C#N)c4C)cc32)c1C | 0.57 µM
CCN(CC)CCNC(=O)c1cc(C)c(/C=C2\C(=O)Nc3ccc(-c4csc(-c5ccccc5)n4)cc32)[nH]1 | 4.04 µM
CCN(CC)CCNC(=O)c1c(C)[nH]c(/C=C2\C(=O)Nc3ccc(-c4ccncc4)cc32)c1C | 2.14 µM
O=C1Nc2ccc(-c3csc(C4CCNCC4)n3)cc2/C1=C/c1cc2c([nH]1)CCCC2 | 2.68 µM

test system: FaDu; assay: Cytotoxic activity against human FADU bulk cells incubated for 72 hrs by Cell-titer-Glo luminescence assay; assay type: functional, cell-based; conditions: not given

Compound | IC50
CCN(CC)CCNC(=O)c1c(C)[nH]c(/C=C2\C(=O)Nc3ccc(-c4ccc(OC)cn4)cc32)c1C | 7.01 µM
CCN(CC)CCNC(=O)c1c(C)[nH]c(/C=C2\C(=O)Nc3ccc(-c4cnc5ccccn45)cc32)c1C | 4.63 µM
CCN(CC)CCNC(=O)c1c(C)[nH]c(/C=C2\C(=O)Nc3ccc(-c4ccc(OC)cc4C)cc32)c1C | 2.31 µM
CCN(CC)CCNC(=O)c1c(C)[nH]c(/C=C2\C(=O)Nc3cc(-c4csc(-n5cccn5)n4)ccc32)c1C | 5.3 µM
CCN(CC)CCNC(=O)c1c(C)[nH]c(/C=C2\C(=O)Nc3ccc(-c4cnc5cccnn45)cc32)c1C | 1.74 µM
CCN(CC)CCNC(=O)c1c(C)[nH]c(/C=C2\C(=O)Nc3ccc(-c4cnc5ccccc5c4)cc32)c1C | 4.59 µM
CCN(CC)CCNC(=O)c1c(C)[nH]c(/C=C2\C(=O)Nc3ccc(-c4cccc(C#N)c4C)cc32)c1C | 4.27 µM
CCN(CC)CCNC(=O)c1cc(C)c(/C=C2\C(=O)Nc3ccc(-c4csc(-c5ccccc5)n4)cc32)[nH]1 | 11.4 µM
CCN(CC)CCNC(=O)c1c(C)[nH]c(/C=C2\C(=O)Nc3ccc(-c4ccncc4)cc32)c1C | 6.81 µM
O=C1Nc2ccc(-c3csc(C4CCNCC4)n3)cc2/C1=C/c1cc2c([nH]1)CCCC2 | 21.1 µM
